Results on 10 molecules are retold here after patent US11014898B1, “Benzothiazepine compounds and their use as bile acid modulators” (Albireo AB, priority 2020, dated 2021).

The target of one series is T1, Human IBAT (Homo sapiens, UniProt Q12908).
T1 construct: expressed in transfected cells; cells kept under Puromycin selection
T1 sequence (Q12908 1-348): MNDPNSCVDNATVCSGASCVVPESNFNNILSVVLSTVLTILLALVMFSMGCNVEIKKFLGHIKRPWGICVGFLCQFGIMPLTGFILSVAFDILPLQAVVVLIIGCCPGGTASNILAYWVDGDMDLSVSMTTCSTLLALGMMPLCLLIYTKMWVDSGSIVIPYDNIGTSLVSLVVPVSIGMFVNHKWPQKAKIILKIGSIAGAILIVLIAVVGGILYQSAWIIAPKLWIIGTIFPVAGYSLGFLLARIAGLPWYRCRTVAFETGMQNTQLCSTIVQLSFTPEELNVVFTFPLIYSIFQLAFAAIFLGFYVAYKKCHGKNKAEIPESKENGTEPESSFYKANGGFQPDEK
Description: IBAT (h) assay: 3H-taurocholic acid uptake in human IBAT-overexpressing cells. The series is classed as cell-based. The settings on record: 0.25 μM 3H-taurocholic acid and 5 μM cold taurocholic acid, 20 minutes, read-out: hIBAT IC50. As for the experimental part:
10,000 cells (Human or Mouse IBAT-overexpressing cells) were seeded in 96-wells plate (Corning CLS3809) in 200 μL MEM-alpha medium (Gibco 12571-063) supplemented with 10% FBS (Gibco 10438026) containing Puromycin (Gibco A1113803) (10 μg/mL) and incubated at 37° C. in 5% CO2 for 48 hours. After incubation, media was decanted from the wells and cells were washed two times with 300 μL of basal MEM-alpha medium (FBS-free). After decanting basal MEM-alpha medium each time, plates were tapped against paper towel to ensure maximum removal of residual media. Test inhibitor dilutions (highest test concentration being 10 μM, 3-fold serial dilution, 10 points) prepared in DMSO (Sigma D2650) were added in incubation mix (maintaining 0.2% final DMSO concentration) containing 0.25 μM 3H-taurocholic acid (ARC ART-1368) and 5 μM of cold taurocholic acid (Sigma T4009). 50 μL of incubation mix containing test inhibitors was then added to the wells (in duplicate) and the plates were incubated for 20 minutes in a CO2 incubator at 37° C. After incubation, the reaction was stopped by keeping the plates on ice water mix for 2-3 minutes and then the incubation mix was aspirated completely from the wells. The wells were washed two times with 250 μL of chilled unlabelled 1 mM taurocholic acid dissolved in HEPES (Gibco 15630080)-buffered (10 mM) HBSS (Gibco 14175079) (pH 7.4). The plates were tapped against a paper towel after every wash to ensure maximum removal of blocking buffer.
100 μL of MicroScint-20 (PerkinElmer 6013621) was added to the wells and kept overnight at room temperature before reading the plates in TopCount NXT™ Microplate Scintillation and Luminescence Counter from PerkinElmer under 3H Test protocol (set at 120 seconds reading time per well).
All test compounds were provided in powder form at room temperature. 10 mM DMSO stocks of the test compounds were prepared, aliquoted and stored at −20° C. From the 10 mM DMSO stock of the compounds, a 3-fold serial dilution in DMSO was prepared to get a total of 10 dilutions of the test compounds. 0.5 μL of this dilution in DMSO was added to 250 μL of FBS-free basal media containing 3H-taurocholic acid and cold taurocholic acid to prepare the incubation mixture.

Series [1] can be described thus: Bidirectional permeability assay (Caco-2 cells). The series is classed as in vitro ADME. The settings on record: human, Caco-2, pH 7.4, 10 μM in FaSSIF buffer, 120 minutes at 37° C.; for Papp A→B at 120 min, 10 μM: absorptive direction (A2B); for Papp B→A at 120 min, 10 μM: secretory direction (B2A). On the procedure: Caco-2 cells (Evotec) were seeded at a density of 70,000 cells/well in Millicell® 24-well cell culture insert plates and maintained in an incubator (37° C., 5% CO2, 95% RH) for 21 days with media change on alternate days.
Stock solutions (10 mM) of the test compounds, atenolol (low permeability marker), propranolol (high permeability marker) and digoxin (substrate for P-gp transport pathway) were prepared in dimethylsulfoxide (DMSO). An intermediate stock solution (1 mM) was prepared by diluting 10 μL of 10 mM master stock solution with 90 μL of neat DMSO. A working stock solution (10 μM) was prepared by diluting 50 μL of 1 mM with 4950 μL of FaSSIF buffer. Post addition of compounds to the FaSSIF, samples were subjected to sonication for 2 hours, and centrifuged at 4000 RPM for 30 minutes at 37° C. The 4 mL of resultant supernatant was directly used in the assay. The final DMSO concentration in the transport experiments was 1%.
On the day of assay, Caco-2 monolayers were washed twice with transport buffer (HBSS, pH 7.4) and pre-incubated for 30 min (37° C., 5% CO2, 95% RH) in an incubator. The electrical resistance of the monolayers was measured with a Millicell®-ERS system. Monolayers with trans-epithelial electrical resistance (TEER) values greater than 350 ohm·cm^2 were selected for the assay.
The assay was conducted in absorptive direction (A2B) and secretory (B2A) directions. Transport experiments were initiated by addition of transport assay buffer (FaSSIF buffer prepared in HBSS) consisting of compounds to the donor compartment (apical chamber A-B; basolateral chamber B-A) in duplicate (n=2) wells. Drug free HBSS buffer (pH 7.4) containing 1% bovine serum albumin (BSA) was introduced to the receiver (A-B-basolateral; B-A-Apical) compartments. The volumes of apical and basolateral compartments were 0.4 and 0.8 mL, respectively. After adding dosing solution, plates were incubated in an incubator for 120 minutes at 37° C. After 120 minutes, donor and receiver samples were collected and matrix matched (1:1, 30 μL study sample+30 μL blank buffer) with the opposite buffer. Dosing samples matrix matched (1:1, 30 μL study sample+30 μL blank buffer) with the opposite buffer. Samples were processed by adding acetonitrile containing internal standard (60 μL study sample+200 μL acetonitrile containing internal standard-Tolbutamide, 500 ng/mL). Samples were vortexed and centrifuged at 4000 rpm for 10 minutes. The obtained supernatant (100 μL) was diluted with 100 μL of water and transferred to fresh 96 well plates. The concentration of compounds in the samples was analyzed by liquid chromatography tandem mass spectrometry (LC-MS/MS) method using discovery grade bio-analytical method, as applicable.
The mean apparent permeability (Papp×10^−6 cm/sec) of the test compounds, atenolol, propranolol and digoxin were calculated as follows:
where dq/dt=rate of transport (rate of transport of compound in the receiver compartment), C0=initial concentration in the donor compartment, A=surface area of the effective filter membrane.

`CCCCC1(CCCC)CN(c2ccccc2)c2cc(N(C)C)c(OCC(=O)O)cc2S(=O)(=O)C1` [Example 1, 2-((3,3-dibutyl-7-(dimethylamino)-1,1-dioxido-5-phenyl-2,3,4,5-tetrahydro-1,5-benzothiazepin-8-yl)oxy)acetic Acid]: the IC50 (in general, the concentration needed to halve the response being measured) on Human IBAT turned out to be 24 nM. For the same molecule, in series [1], the Papp A→B (as a rule, the apparent permeability from the apical to the basolateral side of a cell layer) at 120 min, 10 μM is 3.2 ×10⁻⁶ cm/s and the Papp B→A – broadly, the apparent permeability from the basolateral to the apical side of a cell layer – at 120 min, 10 μM is 9.4 ×10⁻⁶ cm/s.

As for `CCCCC1(CC)CN(c2ccc(OC)cc2)c2cc(SC)c(OCC(=O)O)cc2S(=O)(=O)C1` (stereo not shown) [Example 18, 2-((3-butyl-3-ethyl-5-(4-methoxyphenyl)-7-(methylthio)-1,1-dioxido-2,3,4,5-tetrahydro-1,5-benzothiazepin-8-yl)oxy)acetic Acid], on Human IBAT, the IC50 was 17 nM.

`CCCCC1(CC)CN(c2ccccc2)c2cc(N(C)C)c(OCC(=O)O)cc2S(=O)(=O)C1` (racemic) [Example 7, 2-((3-butyl-7-(dimethylamino)-3-ethyl-1,1-dioxido-5-phenyl-2,3,4,5-tetrahydro-1,5-benzothiazepin-8-yl)oxy)acetic Acid]: the IC50 at Human IBAT was found to be 14 nM.

With `CCCCC1(CC)CN(c2ccc(F)cc2)c2cc(SC)c(OCC(=O)O)cc2S(=O)(=O)C1` (racemic) [Example 14, 2-((3-butyl-3-ethyl-5-(4-fluorophenyl)-7-(methylthio)-1,1-dioxido-2,3,4,5-tetrahydro-1,5-benzothiazepin-8-yl)oxy)acetic Acid], at Human IBAT, the IC50 was 6.4 nM.

Turning to `CCCCC1(CC)CN(c2ccc(O)cc2)c2cc(SC)c(OCC(=O)O)cc2S(=O)(=O)C1` (single isomer, unassigned) [Example 19, 2-((3-butyl-3-ethyl-5-(4-hydroxyphenyl)-7-(methylthio)-1,1-dioxido-2,3,4,5-tetrahydro-1,5-benzothiazepin-8-yl)oxy)acetic Acid], the IC50 at Human IBAT was found to be 705 nM.

Consider `CCCCC1(CC)CN(c2ccc(F)cc2)c2cc(SC)c(OCC(=O)O)cc2S(=O)(=O)C1` (single isomer, unassigned) [Example 15, 2-((3-butyl-3-ethyl-5-(4-fluorophenyl)-7-(methylthio)-1,1-dioxido-2,3,4,5-tetrahydro-1,5-benzothiazepin-8-yl)oxy)acetic acid], for which the IC50 at Human IBAT worked out at 2.4 nM. Also, in series [1], the apical-to-basolateral permeability (Papp A→B) at 120 min, 10 μM worked out at 8.7 ×10⁻⁶ cm/s and the Papp B→A at 120 min, 10 μM stood at 12.9 ×10⁻⁶ cm/s.

For the molecule `CCCCC1(CCCC)CN(c2ccc(OC)cc2)c2cc(SC)c(OCC(=O)O)cc2S(=O)(=O)C1` [Example 2, 2-((3,3-dibutyl-5-(4-methoxyphenyl)-7-(methylthio)-1,1-dioxido-2,3,4,5-tetrahydro-1,5-benzothiazepin-8-yl)oxy)acetic Acid], on Human IBAT, the IC50 came out at 38 nM. In series [1], this molecule yielded a Papp A→B at 120 min, 10 μM of 4.3 ×10⁻⁶ cm/s and a Papp B→A at 120 min, 10 μM of 6.6 ×10⁻⁶ cm/s.

On to `CCCCC1(CC)CN(c2ccc(O)cc2)c2cc(SC)c(OCC(=O)O)cc2S(=O)(=O)C1` (racemic) [Example 17, 2-((3-butyl-3-ethyl-5-(4-hydroxyphenyl)-7-(methylthio)-1,1-dioxido-2,3,4,5-tetrahydro-1,5-benzothiazepin-8-yl)oxy)acetic Acid], for which, at Human IBAT, the half-inhibitory concentration (IC50) worked out at 19 nM.

As to `CCCCC1(CC)CN(c2ccc(F)cc2)c2cc(SC)c(OCC(=O)O)cc2S(=O)(=O)C1` (single isomer, unassigned) [Example 16, 2-((3-butyl-3-ethyl-5-(4-fluorophenyl)-7-(methylthio)-1,1-dioxido-2,3,4,5-tetrahydro-1,5-benzothiazepin-8-yl)oxy)acetic acid], the IC50 on Human IBAT was 64 nM.

Turning to `CCCCC1(CC)CN(c2ccccc2)c2cc(N(C)C)c(OCC(=O)O)cc2S(=O)(=O)C1` (single isomer, unassigned) [Example 9, 2-((3-butyl-7-(dimethylamino)-3-ethyl-1,1-dioxido-5-phenyl-2,3,4,5-tetrahydro-1,5-benzothiazepin-8-yl)oxy)acetic Acid], the IC50 at Human IBAT worked out at 217 nM.
